Test results from paper PMC9913174, “Potent Inhibition of Macropinocytosis by Niclosamide in Cancer Cells: A Novel Mechanism for the Anticancer Efficacy for the Antihelminthic” (Cancers, 2023).

Target: SLC38A5 (Homo sapiens, UniProt Q8WUX1)
Assay: inhibition of Li+-stimulated [3H]-serine uptake in HPAF-II and TXBR-100 cells (endogenous transporter)
Type: cell-based

Chain of SLC38A5 (Q8WUX1 whole entry): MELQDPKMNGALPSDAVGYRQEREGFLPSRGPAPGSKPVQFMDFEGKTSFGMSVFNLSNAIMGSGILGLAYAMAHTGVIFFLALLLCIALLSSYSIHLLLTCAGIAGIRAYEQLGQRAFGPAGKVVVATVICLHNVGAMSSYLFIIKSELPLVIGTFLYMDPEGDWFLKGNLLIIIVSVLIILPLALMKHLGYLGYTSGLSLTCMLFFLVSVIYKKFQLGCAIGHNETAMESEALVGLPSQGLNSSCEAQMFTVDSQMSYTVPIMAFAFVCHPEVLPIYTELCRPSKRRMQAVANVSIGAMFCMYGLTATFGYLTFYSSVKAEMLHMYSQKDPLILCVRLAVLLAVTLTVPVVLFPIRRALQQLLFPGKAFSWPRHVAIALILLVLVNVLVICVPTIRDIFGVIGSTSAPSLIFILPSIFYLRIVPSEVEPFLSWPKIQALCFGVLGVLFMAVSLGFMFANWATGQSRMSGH

IC50: 1000 to 2500 nM
Structure (SMILES): O=C(Nc1ccc([N+](=O)[O-])cc1Cl)c1cc(Cl)ccc1O [niclosamide]
